Laboratory results published in US20080064871A1, “Production Method of Nitrogen-Containing Fused Ring Compounds” (Japan Tobacco Inc., priority 2006, published 2008).

target: T1, CYP2C9 (Homo sapiens, UniProt P11712); assay: CYP inhibitory test using human liver microsome; assay type: in vitro ADME; conditions: human liver microsomes, pH 7.4, probe diclofenac, model substrate diclofenac, 37° C. 10 min, LC/MS/MS, read-out: CYP2C9 inhibition IC50
T1 construct: Human liver microsome (20 mg protein/mL, 5 μL, Xenotech LLC, purchased from Lenexa Kans.); tissue Xenotech LLC; host or cells: human liver microsome
Procedure: Reference Experimental Example 2 Cyp Inhibitory Test Using Human Liver Microsome
Human liver microsome (20 mg protein/mL, 5 μL, Xenotech LLC, purchased from Lenexa Kans.) was suspended in 100 mM potassium phosphate buffer (70 μL, pH 7.4), mixed with a solution (0.5 μL) of the Example compound dissolved in DMSO and preincubated at 37° C. for 5 min. NADPH producing system coenzyme solution (β-nicotinamide adenine dinucleotide phosphate: 5.2 mM, D-glucose-6-phosphate: 13.2 mM, magnesium chloride: 13.2 mM, glucose-6-phosphate dehydrogenase: 1.8 U/mL) 25 μL, and a model substrate (CYP3A4: midazolam 1 mM, CYP2D6: bufuralol 1 mM, CYP2C9: diclofenac 2 mM) 0.5 μL dissolved in DMSO were added to start the reaction. After incubation at 37° C. for 10 min., acetonitrile (200 μL) containing an internal standard substance (propranolol 1 μM) was added and the mixture was centrifuged (room temperature, 3000 rpm, 20 min). The amount of the metabolite produced from each model substrate in the supernatant was measured by high performance liquid chromatography/mass spectrometry (LC/MS/MS) and each CYP enzyme activity was determined. The concentration showing 50% inhibition (IC50) was calculated relative to the enzyme activity without addition of Example compound (DMSO 0.5 μL added) as 100%.

T1 sequence (P11712 whole entry): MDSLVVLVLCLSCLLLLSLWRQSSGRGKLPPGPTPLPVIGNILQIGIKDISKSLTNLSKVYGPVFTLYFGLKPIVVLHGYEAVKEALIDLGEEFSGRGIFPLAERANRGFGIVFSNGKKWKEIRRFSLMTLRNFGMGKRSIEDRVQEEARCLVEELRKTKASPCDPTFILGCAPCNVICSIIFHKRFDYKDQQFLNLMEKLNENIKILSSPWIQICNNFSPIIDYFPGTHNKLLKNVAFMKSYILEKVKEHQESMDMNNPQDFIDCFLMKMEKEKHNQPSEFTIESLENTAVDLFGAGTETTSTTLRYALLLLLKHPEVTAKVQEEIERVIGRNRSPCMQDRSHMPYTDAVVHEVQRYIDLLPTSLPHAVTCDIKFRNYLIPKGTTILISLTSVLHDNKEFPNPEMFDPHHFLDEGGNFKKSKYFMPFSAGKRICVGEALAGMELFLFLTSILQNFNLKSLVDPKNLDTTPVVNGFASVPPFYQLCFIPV

| IC50 at 10 min | SMILES |
| --- | --- |
| 6 µM | O=C(c1cc(Cl)c(O)c(Cl)c1)N1CCCOc2ccccc21 [Example 94] |

target: T2, human URAT1 (Homo sapiens, UniProt Q96S37); assay: Uric acid transport inhibitory test using human URAT1-expressing cells; assay type: cell-based; conditions: human URAT1 expressing HEK293 cells, uptake of 14C-labeled uric acid for 5 min, room temperature; read-out: hURAT1 (IC50, concentration necessary for inhibiting the uric acid transport rate by 50%)
T2 construct: Human URAT1 full length cDNA was subcloned to expression vector pcDNA3.1; expressed in transfected cells; host or cells: HEK293 cells (pcDNA3.1, geneticin-selected)
T2 sequence (Q96S37 1-553): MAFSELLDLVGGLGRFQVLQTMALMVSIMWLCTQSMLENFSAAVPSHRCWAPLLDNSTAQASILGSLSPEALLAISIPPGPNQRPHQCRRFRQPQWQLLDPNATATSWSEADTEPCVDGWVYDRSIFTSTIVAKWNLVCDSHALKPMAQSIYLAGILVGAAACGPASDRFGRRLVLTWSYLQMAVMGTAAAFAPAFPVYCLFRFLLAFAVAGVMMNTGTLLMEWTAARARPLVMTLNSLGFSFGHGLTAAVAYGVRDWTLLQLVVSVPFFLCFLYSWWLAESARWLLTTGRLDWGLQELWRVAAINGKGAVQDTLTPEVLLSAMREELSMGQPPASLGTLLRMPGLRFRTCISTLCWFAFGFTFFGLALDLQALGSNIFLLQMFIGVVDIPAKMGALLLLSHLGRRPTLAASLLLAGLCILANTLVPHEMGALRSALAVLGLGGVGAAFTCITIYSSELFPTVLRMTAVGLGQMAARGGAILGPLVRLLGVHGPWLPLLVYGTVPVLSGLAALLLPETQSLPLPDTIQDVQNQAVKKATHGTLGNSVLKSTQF
Source text: Reference Experimental Example 1 Uric Acid Transport Inhibitory Test Using Human Urat1-Expressing Cells
Human URAT1 full length cDNA was subcloned to expression vector pcDNA3.1 and human URAT1 gene was transfected into human embryonic kidney derived cell line (HEK293 cells) by liposome method using Lipofectamine2000. Simultaneously, HEK293 cells transfected with expression vector pcDNA3.1 alone (hereinafter mock cells) were also produced. HEK293 cells expressing human URAT1 gene or mock cells were selected with geneticin resistance as an index. The functional expression of human URAT1 gene was confirmed by a method similar to the following method, using transport of uric acid labeled with ^14C into the cells as an index.
Human URAT1 expressing HEK293 cells or mock cells were cultured in Dulbecco's modified Eagle's MEM medium (high glucose) containing 10% fetal bovine serum, 0.5 mg/mL geneticin sulfate, 100 units/mL penicillin and 100 μg/mL streptomycin under the conditions of 37° C. and 5% CO2 in an incubator. The cells were plated in a 96 well plate (poly-D-Lysine coated) at 1×10^5 cells/well and the following uric acid transport inhibitory test was performed 24 hr later. This test was performed at room temperature.
After the medium was removed by aspiration from each well, the cells were washed once with Hank's Balanced Salt Solution (HBSS) and preincubated with HBSS ([…]) for 5 min. HBSS was aspirated and an assay buffer (wherein NaCl in the above-mentioned HBSS had been substituted with Na-gluconate) containing various concentrations of the Example compound and a radioactive ligand (uric acid labeled with 14C; final concentration […]) was added to each well at […] and an uptake reaction was carried out for 5 min. After the reaction, the cells were washed twice with ice-cold HBSS ([…]), and Microscin ti TM 20 (PerkinElmer) was added at […]. The cells were lysed by stirring and the radioactivity of each well was measured in a liquid scintillation counter (TOP COUNT, Packard).
The uric acid transport rate (%) of the Example compound at each concentration was calculated relative to the radioactivity (difference in radioactivity between human URAT1 expressing HEK293 cells and mock cells without addition of Example compound (DMSO addition)) showing URAT1 specific uric acid transport as 100%, and the concentration (IC50) of the Example compound necessary for inhibiting the uric acid transport rate by 50% was determined. In Table-Table, “+++” means IC50 value of less than 100 nM, “++” means IC50 value of 100 nM to less than 1000 nM, and “+” means IC50 value of 1000 nM to less than 3000 nM.

| SMILES | IC50 |
| --- | --- |
| O=C(c1cc(Cl)c(O)c(Cl)c1)N1CCCOc2ccccc21 [Example 94] | 100 to 1000 nM |
| CCOC(=O)COc1c(Cl)cc(C(=O)N2CCOc3ccccc32)cc1Cl [Example 91, ethyl [2,6-dichloro-4-(2,3-dihydrobenzo[1,4]oxazine-4-carbonyl)phenoxy]acetate] | 1000 to 3000 nM |
| O=C1COc2ccccc2N1C(=O)c1cc(Cl)c(O)c(Cl)c1 [Example 24, 4-(3,5-dichloro-4-hydroxybenzoyl)-4H-benzo[1,4]oxazin-3-one] | 1000 to 3000 nM |
| O=C(c1cc([N+](=O)[O-])c(O)c([N+](=O)[O-])c1)N1CCOc2ccccc21 [Example 30, (2,3-dihydrobenzo[1,4]oxazin-4-yl)-(4-hydroxy-3,5-dinitrophenyl)-methanone] | 100 to 1000 nM |
| COc1ccc2c(c1)OCCN2C(=O)c1cc(Cl)c(O)c(Cl)c1 [Example 18, (3,5-dichloro-4-hydroxyphenyl)-(7-methoxy-2,3-dihydrobenzo[1,4]oxazin-4-yl)-methanone] | 100 to 1000 nM |
| COc1ccc2c(c1)N(C(=O)c1cc(Cl)c(O)c(Cl)c1)CCO2 [Example 17, (3,5-dichloro-4-hydroxyphenyl)-(6-methoxy-2,3-dihydrobenzo[1,4]oxazin-4-yl)-methanone] | < 100 nM |

Second part, the compound after the results:

| IC50 | SMILES |
| --- | --- |
| 100 to 1000 nM | O=C(c1ccc(O)c([N+](=O)[O-])c1)N1CCOc2ccccc21 [Example 75, (2,3-dihydrobenzo[1,4]oxazin-4-yl)-(4-hydroxy-3-nitrophenyl)-methanone] |
| 100 to 1000 nM | O=C(c1cc(Cl)cc(Cl)c1O)N1CCOc2ccccc21 [Example 38, (3,5-dichloro-2-hydroxyphenyl)-(2,3-dihydrobenzo[1,4]oxazin-4-yl)-methanone] |
| < 100 nM | O=C(c1cc(I)c(O)c(I)c1)N1CCOc2ccccc21 [Example 5, (2,3-dihydrobenzo[1,4]oxazin-4-yl)-(4-hydroxy-3,5-diiodophenyl)-methanone] |
